In US12187702B2, “Sulfonamideurea compounds” (Inflazome Limited, priority 2018, dated 2025):
Structures can show the parent of a compound that is named as a salt.

Columns and labels:
[1] = target: T1, NLRP3 (Homo sapiens, UniProt Q96P20); assay: Human whole blood IL-1β release assay (LPS + nigericin, AlphaLisa); assay type: cell-based; design: Plate out 80 μl of whole blood containing 1 μg/ml of LPS; from tissue; host or cells: human whole blood from healthy donors; settings: human whole blood, 1 μg/ml LPS, 10 μM nigericin; IL-1β release; read-out: HWB IC50
T1 sequence (Q96P20 whole entry): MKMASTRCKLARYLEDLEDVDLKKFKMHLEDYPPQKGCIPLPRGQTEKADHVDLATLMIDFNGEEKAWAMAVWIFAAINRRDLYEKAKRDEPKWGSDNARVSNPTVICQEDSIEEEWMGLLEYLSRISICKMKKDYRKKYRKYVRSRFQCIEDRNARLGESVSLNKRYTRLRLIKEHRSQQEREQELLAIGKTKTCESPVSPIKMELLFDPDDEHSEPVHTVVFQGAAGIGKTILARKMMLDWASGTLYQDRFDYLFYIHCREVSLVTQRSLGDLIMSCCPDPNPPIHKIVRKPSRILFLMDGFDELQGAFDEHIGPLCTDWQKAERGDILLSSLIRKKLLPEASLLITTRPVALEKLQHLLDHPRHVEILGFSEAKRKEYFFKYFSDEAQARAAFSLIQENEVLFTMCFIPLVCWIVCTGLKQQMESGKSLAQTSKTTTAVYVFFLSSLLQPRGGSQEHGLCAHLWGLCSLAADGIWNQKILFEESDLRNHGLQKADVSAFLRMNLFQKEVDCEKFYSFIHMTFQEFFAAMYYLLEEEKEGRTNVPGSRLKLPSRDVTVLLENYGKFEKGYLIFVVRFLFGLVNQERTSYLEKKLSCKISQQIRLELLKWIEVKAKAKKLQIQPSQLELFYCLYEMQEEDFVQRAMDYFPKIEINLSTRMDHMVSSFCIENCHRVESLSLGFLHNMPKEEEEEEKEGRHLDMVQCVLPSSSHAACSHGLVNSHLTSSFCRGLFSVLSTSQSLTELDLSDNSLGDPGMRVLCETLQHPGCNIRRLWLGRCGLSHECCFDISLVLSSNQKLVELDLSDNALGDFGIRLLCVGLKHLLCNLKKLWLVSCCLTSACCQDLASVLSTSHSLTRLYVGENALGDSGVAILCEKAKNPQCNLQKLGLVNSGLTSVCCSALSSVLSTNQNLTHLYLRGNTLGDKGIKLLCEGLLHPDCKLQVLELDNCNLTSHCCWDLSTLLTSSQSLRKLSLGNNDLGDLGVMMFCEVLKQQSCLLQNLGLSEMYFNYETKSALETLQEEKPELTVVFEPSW
Procedure: For systemic delivery, the ability to inhibit NLRP3 when the compounds are present within the bloodstream is of great importance. For this reason, the NLRP3 inhibitory activity of a number of compounds in human whole blood was investigated in accordance with the following protocol.
Human whole blood in Li-heparin tubes was obtained from healthy donors from a volunteer donor panel. • 1. Plate out 80 μl of whole blood containing 1 μg/ml of LPS in 96-well, clear bottom cell culture plate (Corning #3585) • 2. Add 10 μl compound (8 points half-log dilution with 10 μM top dose) or vehicle (DMSO 0.1% FAC) to the appropriate wells • 3. Incubate for 3 hrs at 37° C., 5% CO2 • 4. Add 10 μl nigericin (Sigma #N7143) (10 μM FAC) to all wells • 5. Incubate for 1 hr at 37° C., 5% CO2 • 6. At the end of the incubation period, spin plates at 300×g for 5 mins to pellet cells and remove 20 μl of supernatant and add to 96-well v-bottom plates for IL-1β analysis (note: these plates containing the supernatants can be stored at −80° C. to be analysed at a later date) • 7. IL-1β was measured according to the manufacturer protocol (Perkin Elmer-AlphaLisa IL-1 Kit AL220F-5000) • 8. IC50 data is fitted to a non-linear regression equation (log inhibitor vs response-variable slope 4-parameters)

[2] = PK, intravenous administration; assay type: in vivo, male Sprague Dawley rats; settings: male, Sprague Dawley, plasma, rat; for clearance / half-life: dose per compound as in Table 3; for AUC: dose per compound as in Table 3 (0.08-1.86 mg/kg); for Vd: dose per compound as in Table 3, read-out: Vdss
Procedure: Pharmacokinetic parameters were determined in male Sprague Dawley rats (Charles River, UK, 250-350 g; or Vital River Laboratory Animal Technology Co Ltd, Beijing, China, 7-9 weeks old). Animals were individually housed during the study and maintained under a 12 h light/dark cycle.
For intravenous administration, compounds were formulated as a solution in water or DMSO:PBS [10:90] in 2 mL/kg dosing volume and administered via tail or jugular vein. For oral administration, compounds were formulated as a solution in 0.5% w/v methyl cellulose in water in 5 mL/kg dosing volume and administered orally.
Serial blood samples (about 120-300 μL) were taken from each animal at each of 8 time-points post dose (0.083, 0.25, 0.5, 1, 2, 4, 8 and 24 h) or at each of 12 time-points post dose (0.03, 0.1, 0.17, 0.25, 0.5, 1, 2, 4, 6, 8, 12 and 24 h) or pre-dose and at each of 9 time-points post dose (0.25, 0.5, 1, 2, 4, 6, 8, 12 and 24 h). Samples were held on ice for no longer than 30 minutes before centrifugation (10,000 rpm (8,385 g) for 3 minutes; or 5,696 rpm (3,000 g) for 15 minutes) for plasma generation. Plasma was frozen on dry ice prior to bioanalysis. PK parameters were generated from LC-MS/MS data using Dotmatics or Phoenix WinNonlin 6.3 software.

[3] = target: T1, NLRP3; assay: THP-1 cells pyroptosis assay (LPS + nigericin, resazurin read-out); assay type: cell-based; design: Seed THP-1 cells (25,000 cells/well) containing 1.0 μg/ml LPS; host or cells: THP-1 cells; settings: THP-1 cells, 1 μg/ml LPS, 5 μM nigericin; NLRP3 inhibitory activity; read-out: THP IC50
In short: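 THP-1 cells (25,000/well) primed with 1 μg/ml LPS in serum-free RPMI, treated 3 h with compound (8-point half-log series, 10 μM top, 0.1% DMSO), then 5 μM nigericin for 1 h at 37 °C. Viability read by 100 μM resazurin fluorescence after 1-2 h; IC50 from 4-parameter fit.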

IC50 [1] [nM] | clearance [2] [mL/min/kg] | half-life [2] [h] | AUC [2] [ng·h/mL] | Vd [2] [L/kg] | IC50 [3] [nM] | SMILES
< 500 | 3.7 | 3.44 | 6760 | 0.43 | < 500 | CN1CC[C@@H](N(C)S(=O)(=O)NC(=O)Nc2c3c(cc4c2CCC4)CCC3)C1 [Example 66, 3-((R)—N-Methyl-N-(1-methylpyrrolidin-3-yl)sulfamoyl)-1-(1,2,3,5,6,7-hexahydro-s-indacen-4-yl)urea, potassium salt]
< 500 | 5.7 | 1.14 | 5150 | 0.45 | < 500 | CN1CCC2CN(S(=O)(=O)NC(=O)Nc3c4c(cc5c3CCC5)CCC4)CC21 (centres unmarked) [Example 96, N-((1,2,3,5,6,7-Hexahydro-s-indacen-4-yl)carbamoyl)-1-methylhexahydropyrrolo[3,4-b]pyrrole-5(1H)-sulfonamide, potassium salt]
– | 6 | 5.61 | 5150 | 0.84 | – | COc1cc(-c2ccc3c(c2NC(=O)NS(=O)(=O)N2CC4CCN(C)C4C2)CCC3)ccn1 (centres unmarked) [Example 106]
< 5000 | – | – | – | – | < 1000 | O=C(Nc1c2c(cc3c1CCC3)CCC2)NS(=O)(=O)N1CC(N2CCC2)C1 [Example 46, N-((1,2,3,5,6,7-Hexahydro-s-indacen-4-yl)carbamoyl)-[1,3′-biazetidine]-1′-sulfonamide, potassium salt]
< 500 | – | – | – | – | < 500 | CN(C)CCCNS(=O)(=O)NC(=O)Nc1c2c(cc3c1CCC3)CCC2 [Example 81, 3-(N-(3-(Dimethylamino)propyl)sulfamoyl)-1-(1,2,3,5,6,7-hexahydro-s-indacen-4-yl)urea, potassium salt]
< 500 | – | – | – | – | < 500 | CCN(CC)C1CCN(S(=O)(=O)NC(=O)Nc2c3c(cc4c2CCC4)CCC3)C1 (centres unmarked) [Example 49, 3-(3-((Diethylamino)pyrrolidine)-1-sulfamoyl)-1-(1,2,3,5,6,7-hexahydro-s-indacen-4-yl)urea, potassium salt]
< 500 | – | – | – | – | < 500 | CN1CCCC2CN(S(=O)(=O)NC(=O)Nc3c4c(cc5c3CCC5)CCC4)CC21 (centres unmarked) [Example 97, N-((1,2,3,5,6,7-Hexahydro-s-indacen-4-yl)carbamoyl)-1-methyloctahydro-6H-pyrrolo[3,4-b]pyridine-6-sulfonamide]
< 500 | – | – | – | – | < 1000 | CCN(CC)CCNS(=O)(=O)NC(=O)Nc1c2c(cc3c1CCC3)CCC2 [Example 40, 3-(N-(2-(Diethylamino)ethyl)sulfamoyl))-1-(1,2,3,5,6,7-hexahydro-s-indacen-4-yl)urea, potassium salt]
< 500 | – | – | – | – | < 500 | CN1CC[C@H](N(C)S(=O)(=O)NC(=O)Nc2c3c(cc4c2CCC4)CCC3)C1 [Example 76, 3-((S)—N-Methyl-N-(1-methylpyrrolidin-3-yl)sulfamoyl)-1-(1,2,3,5,6,7-hexahydro-s-indacen-4-yl)urea, potassium salt]
< 10000 | – | – | – | – | < 500 | C#CCCC1(CCNS(=O)(=O)NC(=O)Nc2c3c(cc4c2CCC4)CCC3)N=N1 [Example 45, 3-(N-(2-(3-(but-3-yn-1-yl)-3H-diazirin-3-yl)ethyl))sulfamoyl)-1-(1,2,3,5,6,7-hexahydro-s-indacen-4-yl)urea, potassium salt]
< 500 | – | – | – | – | < 1000 | CN1CCCN(S(=O)(=O)NC(=O)Nc2c3c(cc4c2CCC4)CCC3)CC1 [Example 90, N-((1,2,3,5,6,7-Hexahydro-s-indacen-4-yl)carbamoyl)-4-methyl-1,4-diazepane-1-sulfonamide, potassium salt]
< 1000 | – | – | – | – | < 500 | CC(C)N1CC2CCC(C1)N2S(=O)(=O)NC(=O)Nc1c2c(cc3c1CCC3)CCC2 [Example 38, N-((1,2,3,5,6,7-Hexahydro-s-indacen-4-yl)carbamoyl)-3-isopropyl-3,8-diazabicyclo[3.2.1]octane-8-sulfonamide, potassium salt]
< 500 | – | – | – | – | < 1000 | CC(CNS(=O)(=O)NC(=O)Nc1c2c(cc3c1CCC3)CCC2)N(C)C (centres unmarked) [Example 30, 3-(N-(2-(Dimethylamino)propyl))sulfamoyl)-1-(1,2,3,5,6,7-hexahydro-s-indacen-4-yl)urea, potassium salt]
< 1000 | – | – | – | – | < 500 | CN(C)CC1CCN(S(=O)(=O)NC(=O)Nc2c3c(cc4c2CCC4)CCC3)C1 (centres unmarked) [Example 68, potassium salt]
< 500 | – | – | – | – | < 500 | CN1CC(NS(=O)(=O)NC(=O)Nc2c3c(cc4c2CCC4)CCC3)C1 [Example 34, 3-(N-(1-Methylazetidin-3-yl))sulfamoyl)-1-(1,2,3,5,6,7-hexahydro-s-indacen-4-yl)urea, potassium salt]
< 500 | – | – | – | – | < 500 | CC(C)N1C2CCC1CN(S(=O)(=O)NC(=O)Nc1c3c(cc4c1CCC4)CCC3)C2 [Example 29, N-((1,2,3,5,6,7-Hexahydro-s-indacen-4-yl)carbamoyl)-8-isopropyl-3,8-diazabicyclo[3.2.1]octane-3-sulfonamide, potassium salt]
< 5000 | – | – | – | – | < 500 | CC(C)n1cc(NS(=O)(=O)NC(=O)Nc2c3c(cc4c2CCC4)CCC3)cn1 [Example 65, 3-(N-(1-Isopropyl-1H-pyrazol-4-yl)sulfamoyl)-1-(1,2,3,5,6,7-hexahydro-s-indacen-4-yl)urea, potassium salt]
< 500 | – | – | – | – | < 500 | CC(C)c1cc(F)cc(-c2ccncc2)c1NC(=O)NS(=O)(=O)N(C)C1CCN(C)C1 (centres unmarked) [Example 108]
< 500 | – | – | – | – | < 1000 | CN1CCCC1CNS(=O)(=O)NC(=O)Nc1c2c(cc3c1CCC3)CCC2 (centres unmarked) [Example 25, 3-(N-((1-Methylpyrrolidin-2-yl)methyl))sulfamoyl)-1-(1,2,3,5,6,7-hexahydro-s-indacen-4-yl)urea, potassium salt]
< 500 | – | – | – | – | < 500 | CN1CC2CN(S(=O)(=O)NC(=O)Nc3c4c(cc5c3CCC5)CCC4)CC21 (centres unmarked) [Example 86, N-((1,2,3,5,6,7-Hexahydro-s-indacen-4-yl)carbamoyl)-6-methyl-3,6-diazabicyclo[3.2.0]heptane-3-sulfonamide]
< 5000 | – | – | – | – | < 5000 | CN1CCC2CCN(S(=O)(=O)NC(=O)Nc3c4c(cc5c3CCC5)CCC4)CC21 (centres unmarked) [Example 98, N-((1,2,3,5,6,7-Hexahydro-s-indacen-4-yl)carbamoyl)-1-methyloctahydro-6H-pyrrolo[2,3-c]pyridine-6-sulfonamide]
< 1000 | – | – | – | – | < 500 | CCN1CC2CCC(C1)N2S(=O)(=O)NC(=O)Nc1c2c(cc3c1CCC3)CCC2 [Example 62, 3-Ethyl-N-((1,2,3,5,6,7-hexahydro-s-indacen-4-yl)carbamoyl)-3,8-diazabicyclo[3.2.1]octane-8-sulfonamide, potassium salt]
< 1000 | – | – | – | – | < 500 | CN1CC2CCC(C1)N2S(=O)(=O)NC(=O)Nc1c2c(cc3c1CCC3)CCC2 [Example 37, N-((1,2,3,5,6,7-Hexahydro-s-indacen-4-yl)carbamoyl)-3-methyl-3,8-diazabicyclo[3.2.1]octane-8-sulfonamide, potassium salt]
